The text below walks through data of patent US20080289052A1, “Method of Constructing Animal Having Cancer Cells Transplanted Thereinto” (priority 2004, published 2008).

The assay relates to cancer cells A-549. The assay is described as follows: Anti-tumor agent test in nude mice transplanted subcutaneously with an A-549 cancer cells sheet. Type of assay: in vivo. How it is done: A cell culture base was coated with the temperature-responsive polymer poly(N-isopropylacrylamide) in an amount of 1.9 μg/cm^2 and the cancer cells A-549 was cultivated (2×10^4 cells were seeded; 37° C. in 5% CO2). Three days later, the cancer cells (A-549) on the culture base were confirmed to have become confluent; thereafter, a poly(vinylidene difluoride) [PVDF] membrane not coated with a fibrin gel was gently placed over the cultured cell sheet so that the cultured cancer cells adhered to it; then, the cell culture base was cooled at 20° C. for 60 minutes. After the cooling, a sheet of cancer cells (7 mm×17 mm×2 mm; 5×10^5 cells) was detached together with PVDF membrane. The back of each of 10 nude mice was incised linearly beneath the skin and the subcutaneous tissue was detached with forceps to create a pocket, into which the above-described cancer cells sheet was inserted. After the inserting, the incised part was sutured to complete the transplantation. The dimensions of the tumor that developed after the transplantation were measured over the skin with a micrometer and the volume of the tumor was calculated assuming that it was an ellipsoid. The volume of the tumor was also calculated, this time on the assumption that it was a cylindroid (volume of cylindroid=n/4×major axis of the tumor×minor axis of the tumor×thickness of the tumor). Four weeks after the transplantation, the mean volume of ellipsoid was 578.7+322.8 mm^3, the mean volume of cylindroid was 1258.7+897.9 mm^3, and the mean tumor weight was 785.4±394 mg. The decrease in the tumor volume that occurred immediately after the transplantation as shown in FIG. 1 (tumor assumed as an ellipsoid) and FIG. 2 (as a cylindroid) was absent and the tumor grew bigger as more days elapsed after the transplantation.
The cancer cells transplanted animals prepared in Example 2 were administered a total of four times on a once-a-week basis with 3 mg of 5-fluorouracil (5-FU), a known anti-tumor agent, through the tail vein as it was dissolved in 0.3 ml of 1% ethyl alcohol containing physiological saline. Four weeks after the administration, the mean volume of ellipsoid was 279.6±127.1 mm^3, the mean volume of cylindroid was 619.3±262.9 mm^3, and the mean tumor weight was 369.3±123 mg. As it turned out, the cancer cells transplanted animals described in the present invention got the volume and weight of the tumor to be reduced by receiving the anti-tumor agent. Obviously, the cancer cells transplanted animals of the present invention are useful in selecting an effective anti-tumor agent.

Setting [1] is: A-549 cell sheet transplanted nude mice of Example 2, 3 mg through the tail vein once a week, four times, four weeks after the administration.

Consider `O=c1[nH]cc(F)c(=O)[nH]1` [5-fluorouracil], for which, under setting [1], the mean tumor weight worked out at 369.3 ± 123 mg, the “mean volume of cylindroid (tumor volume)” value is on record as 619.3±262.9 mm^3 and the “mean volume of ellipsoid (tumor volume)” value came to 279.6±127.1 mm^3. Besides, the “volume and weight of the tumor (effect of receiving the anti-tumor agent)” value (A-549 cell sheet transplanted nude mice, compared with untreated animals of Example 2) was “reduced”.
